Data published in PMC12584752, “Covalent fragment screening to inhibit the E3 ligase activity of bacterial NEL enzymes SspH1 and SspH2” (RSC Chemical Biology, 2025).

Experiments:
IpaH9.8 (21–545) = target: T1, IpaH9.8 (21–545) (Shigella flexneri, UniProt Q8VSC3); test: Intact protein LC-MS covalent fragment labelling; format: binding; conditions: dilution series 100–6.25 μM, 24 hours at 4 °C
T1 construct: Recombinant IpaH9.8 (21–545) and SspH1 (161–700) were incubated at 0.5 μM; His-tag (N, cleaved yes); made in house; host or cells: E. coli BL21
Text: A diverse library of 227 compounds with chloroacetamide warheads, featuring a diversity of molecular weight (162–321 Da) and clog P (−1.4 to 3.4) (Table S1), were screened against Salmonella and Shigella NEL E3 ligases using our intact protein liquid chromatography mass spectrometry (LC-MS) platform as previously described.[39,40] Briefly, recombinant SspH1 (161–700[30]) and IpaH9.8 (21–545[29]) (Fig. […] 1C). Raw counts were deconvoluted and the labelling percentage calculated by detection and comparison of protein and protein-fragment molecular weights.
Fig. 1 Intact protein LCMS screening of covalent fragment library against NEL proteins. (A) Cartoon depicting conserved NEL E3 ligase domains; (B) overlaid structures of SspH1 (blue, PDB 9H6W[30]) and IpaH9.8 (green, PDB 6LOL[29]) aligned on NEL domain; (C) workflow of covalent fragment screening using intact LC-MS; (D) fragment labelling percentages for SspH1 and IpaH9.8 with fragments 1–3 highlighted. […]
To mitigate the risk of selecting compounds which indiscriminately recognise ubiquitin binding proteins, we next performed preliminary selectivity studies with compounds 6 and 7 against human ubiquitin system proteins. […] In parallel, we tested the compounds against related NEL E3 ligases SspH2 and IpaH9.8. […]

SspH2 = target: T2, SspH2 (Salmonella typhimurium, UniProt D0ZPH9); test: Intact LC-MS labelling dilution series; format: binding; conditions: dilution series 100–6.25 μM, 24 hours at 4 °C
T2 construct: Recombinant SspH1 (aa 161–700) and SspH2 (aa 166–783) were both characterised; His-tag (N, cleaved yes); made in house; host or cells: E. coli BL21
Method: Fig. 3 Validation of HTC hit compounds by intact MS. Labelling heatmaps of dilution series (100–6.25 μM) of compounds 4–10 with (A) WT SspH1 and (B) C492K SspH1. Labelling heatmaps of dilution series of (C) compound 6 and (D) compound 7 with bacterial and human ubiquitin binding proteins. Recombinant proteins were incubated at either 1.0 or 0.5 μM with 50 μM fragments for 24 hours at 4 °C, before fragment labelling was analysed by intact LC-MS. Bacterial proteins are shown in bold and human proteins in italic fonts. (E)–(H) Kinetics analyses: time courses (0–12 hours) of compound labelling (100–1.56 μM) of SspH1 and SspH2 (0.5 μM) for (E) SspH1 and compound 7, and (F) SspH2 and compound 6. Measurements were performed in technical triplicates. Labelling percentages were plotted against time in GraphPad Prism v.10, and curves fitted separately for each replicate using one-phase association, with constraints Y0 = 0 and plateau = highest labelling percentage. Graphs for SspH1 and compound 6, and SspH2 and compound 7 are shown in Fig. S4A and B. Rate constants (kobs, as given by Graphpad Prism calculated K values) were plotted against fragment concentration in triplicate for (G) SspH1 and (H) SspH2. Straight lines were fitted with constraint Yintercept = 0. For SspH2 kinetics, 100 μM kobs was outside the linear range. […]

T2 sequence (D0ZPH9 166-783): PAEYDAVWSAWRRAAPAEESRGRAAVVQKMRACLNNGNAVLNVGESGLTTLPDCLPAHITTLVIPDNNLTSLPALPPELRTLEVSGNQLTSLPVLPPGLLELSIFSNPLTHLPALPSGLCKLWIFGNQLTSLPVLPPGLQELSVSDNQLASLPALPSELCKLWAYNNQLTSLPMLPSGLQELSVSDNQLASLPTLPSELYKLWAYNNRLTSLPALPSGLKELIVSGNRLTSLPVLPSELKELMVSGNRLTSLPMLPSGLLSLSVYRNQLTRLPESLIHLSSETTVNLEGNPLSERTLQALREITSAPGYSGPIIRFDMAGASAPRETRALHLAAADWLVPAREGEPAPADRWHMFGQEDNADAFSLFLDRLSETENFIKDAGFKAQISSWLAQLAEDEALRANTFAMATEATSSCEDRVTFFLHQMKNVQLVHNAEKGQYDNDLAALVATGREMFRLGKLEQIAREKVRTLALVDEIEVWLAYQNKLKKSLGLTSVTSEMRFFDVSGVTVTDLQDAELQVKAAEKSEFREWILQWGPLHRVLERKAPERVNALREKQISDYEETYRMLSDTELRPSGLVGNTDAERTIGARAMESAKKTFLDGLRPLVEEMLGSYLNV
T1 sequence (Q8VSC3 21-545): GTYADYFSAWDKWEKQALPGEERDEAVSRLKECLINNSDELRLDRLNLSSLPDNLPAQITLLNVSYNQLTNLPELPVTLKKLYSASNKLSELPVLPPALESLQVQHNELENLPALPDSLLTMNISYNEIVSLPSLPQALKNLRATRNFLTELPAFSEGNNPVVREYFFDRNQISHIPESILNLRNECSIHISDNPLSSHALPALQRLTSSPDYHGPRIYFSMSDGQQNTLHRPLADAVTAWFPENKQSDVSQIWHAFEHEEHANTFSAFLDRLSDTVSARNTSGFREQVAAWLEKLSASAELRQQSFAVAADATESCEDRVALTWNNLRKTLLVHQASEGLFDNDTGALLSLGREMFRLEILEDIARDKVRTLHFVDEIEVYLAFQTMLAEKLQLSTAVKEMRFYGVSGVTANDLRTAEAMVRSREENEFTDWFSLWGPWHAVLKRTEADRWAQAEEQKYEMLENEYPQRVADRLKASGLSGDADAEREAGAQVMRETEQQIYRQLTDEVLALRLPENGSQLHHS

| SMILES | labelling of IpaH9.8 (IpaH9.8 (21–545)) | labelling of SspH2 (SspH2) |
| --- | --- | --- |
| Cc1cc(-c2nc3ccccc3n2C2CCN(C(=O)CCl)CC2)cc(C)c1O.Cl [compound 6] | minimal labelling | very strong labelling |
| Cl.O=C(CCl)N1CCC(n2c(-c3ccc(C(F)(F)F)cc3)nc3ccccc32)CC1 [compound 7] | minimal labelling | very strong labelling |
